Results as given in BindingDB's records for doi:10.1016/j.bmcl.2013.03.030 (Panthera Biopharma, 2013).

Molecular target: Botulinum neurotoxin type A (Clostridium botulinum, UniProt P0DPI0)
Assay: Inhibition of Clostridium botulinum BoNT/A light chain (1 to 429 amino acid) using Abz-Thr-dArg-Ile-Asp-Glu-Ala-Asn-Gln-Arg-Ala-Thr-Lys-Nle-Lys(Dnp)-NH2 as substrate after 10 mins by FRET assay

Chain of Botulinum neurotoxin type A (P0DPI0 2-448 limits assumed): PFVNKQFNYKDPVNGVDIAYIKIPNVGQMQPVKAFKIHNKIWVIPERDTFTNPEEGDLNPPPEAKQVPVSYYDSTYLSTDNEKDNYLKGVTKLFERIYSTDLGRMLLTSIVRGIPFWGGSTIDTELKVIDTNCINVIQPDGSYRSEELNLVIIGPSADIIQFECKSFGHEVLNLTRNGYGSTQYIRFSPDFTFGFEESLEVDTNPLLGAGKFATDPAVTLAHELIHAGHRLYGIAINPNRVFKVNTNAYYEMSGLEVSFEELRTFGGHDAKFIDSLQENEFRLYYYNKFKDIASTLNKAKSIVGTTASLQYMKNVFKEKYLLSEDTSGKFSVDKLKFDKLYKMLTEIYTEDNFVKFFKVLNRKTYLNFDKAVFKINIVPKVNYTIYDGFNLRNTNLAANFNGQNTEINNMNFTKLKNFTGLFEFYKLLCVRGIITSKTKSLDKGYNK

## O=C(Cc1sc(N2CCCC2)nc1O)NO
  Ki: > 300 µM
